Measured values: patent US20130184273A1, “BICYCLIC PYRIMIDINES” (Bayer Intellectual Property GmbH, priority 2010, published 2013)

Assays:
[1] = biological target: T1, His-tagged human recombinant kinase full-length Akt2 (Homo sapiens, UniProt P31751); assay: Akt2 kinase assay (TR-FRET); format: biochemical; conditions: 10 μM ATP, 60 min at 22° C., read-out: Akt2, median IC50
T1 construct: His-tagged human recombinant kinase full-length Akt2; His; purchased Invitrogen PV 3975; host or cells: insect cells
T1 sequence (P31751 whole entry): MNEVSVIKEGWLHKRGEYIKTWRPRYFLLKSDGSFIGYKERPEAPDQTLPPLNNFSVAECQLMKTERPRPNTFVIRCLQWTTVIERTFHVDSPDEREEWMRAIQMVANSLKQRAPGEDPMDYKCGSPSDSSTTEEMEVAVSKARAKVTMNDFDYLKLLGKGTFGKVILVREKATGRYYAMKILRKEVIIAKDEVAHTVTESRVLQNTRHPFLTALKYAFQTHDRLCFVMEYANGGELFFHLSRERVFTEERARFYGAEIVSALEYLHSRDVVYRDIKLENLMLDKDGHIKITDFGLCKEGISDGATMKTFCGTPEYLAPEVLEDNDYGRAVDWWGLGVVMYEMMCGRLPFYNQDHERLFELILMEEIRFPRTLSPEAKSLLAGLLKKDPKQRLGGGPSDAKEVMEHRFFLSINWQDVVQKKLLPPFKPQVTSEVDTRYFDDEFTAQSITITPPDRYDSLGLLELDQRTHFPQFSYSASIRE
Description: Akt2 inhibitory activity of compounds of the present invention was quantified employing the Akt2 TR-FRET assay as described in the following paragraphs.
(§1) His-tagged human recombinant kinase full-length Akt2 expressed in insect cells and activated by PDK1 was purchased form Invitrogen (part number PV 3975). As substrate for the kinase reaction the biotinylated peptide biotin-Ahx-KKLNRTLSFAEPG (C-terminus in amide form) was used which can be purchased e.g. from the company Biosynthan GmbH (Berlin-Buch, Germany).
(§2) For the assay 50 nl of a 100 fold concentrated solution of the test compound in DMSO was pipetted into a black low volume 384well microtiter plate (Greiner Bio-One, Frickenhausen, Germany), 2 μl of a solution of Akt2 in assay buffer [50 mM TRIS/HCl pH 7.5, 5 mM MgCl2, 1 mM dithiothreitol, 0.02% (v/v) Triton X-100 (Sigma)] were added and the mixture was incubated for 15 min at 22° C. to allow pre-binding of the test compounds to the enzyme before the start of the kinase reaction. Then the kinase reaction was started by the addition of 3 μl of a solution of adenosine-tri-phosphate (ATP, 16.7 μM=>final conc. in the 5 μl assay volume is 10 μM) and substrate (1.67 μM=>final conc. in the 5 μl assay volume is 1 μM) in assay buffer and the resulting mixture was incubated for a reaction time of 60 min at 22° C. The concentration of Akt2 in the assay was adjusted depending of the activity of the enzyme lot and was chosen appropriate to have the assay in the linear range, typical enzyme concentrations were in the range of about 0.2 ng/μl (final conc. in the 5 μl assay volume).
The reaction was stopped by the addition of 5 μl of a solution of HTRF detection reagents (200 nM streptavidine-XL665 [Cisbio] and 1.5 nM anti-phosho-Serine antibody [Millipore, cat. #35-001] and 0.75 nM LANCE Eu-W 1024 labeled anti-mouse IgG antibody [Perkin Elmer]) in an aqueous EDTA-solution (100 mM EDTA, 0.1% (w/v) bovine serum albumin in 50 mM HEPES/NaOH pH 7.5).
The resulting mixture was incubated 1 h at 22° C. to allow the binding of the biotinylated phosphorylated peptide to the streptavidine-XL665 and the antibodies.
Subsequently the amount of phosphorylated substrate was evaluated by measurement of the resonance energy transfer from the anti-mouse-IgG-Eu-Chelate to the streptavidine-XL665. Therefore, the fluorescence emissions at 620 nm and 665 nm after excitation at 350 nm was measured in a TR-FRET reader, e.g. a Rubystar (BMG Labtechnologies, Offenburg, Germany) or a Viewlux (Perkin-Elmer). The ratio of the emissions at 665 nm and at […] was taken as the measure for the amount of phosphorylated substrate. The data were normalised (enzyme reaction without inhibitor=0% inhibition, all other assay components but no enzyme=100% inhibition).

[2] = biological target: T2, His-tagged human recombinant kinase full-length Akt1 (Homo sapiens, UniProt P31749); assay: Akt1 kinase assay (TR-FRET); format: biochemical; conditions: 10 μM ATP, 60 min at 22° C., read-out: Akt1, median IC50
T2 construct: His-tagged human recombinant kinase full-length Akt1; His; purchased Invitrogen PV 3599; host or cells: insect cells
T2 sequence (P31749 whole entry): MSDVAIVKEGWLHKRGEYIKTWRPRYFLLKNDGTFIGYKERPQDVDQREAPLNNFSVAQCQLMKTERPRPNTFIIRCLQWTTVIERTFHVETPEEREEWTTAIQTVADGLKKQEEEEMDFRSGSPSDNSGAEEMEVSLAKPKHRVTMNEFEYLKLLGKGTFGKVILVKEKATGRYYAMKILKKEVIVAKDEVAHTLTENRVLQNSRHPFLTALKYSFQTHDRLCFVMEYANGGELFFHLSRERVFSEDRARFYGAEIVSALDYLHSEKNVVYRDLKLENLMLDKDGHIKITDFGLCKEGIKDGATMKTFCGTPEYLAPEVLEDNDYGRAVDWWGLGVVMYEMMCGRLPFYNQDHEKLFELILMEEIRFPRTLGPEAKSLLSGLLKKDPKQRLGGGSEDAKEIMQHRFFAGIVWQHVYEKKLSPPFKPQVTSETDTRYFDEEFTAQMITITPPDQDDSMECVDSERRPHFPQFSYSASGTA
Description: Akt1 inhibitory activity of compounds of the present invention was quantified employing the Akt1 TR-FRET assay as described in the following paragraphs.
as §1, with “Akt1” for “Akt2”, “cells” for “cells and activated by PDK1”, “3599).” for “3975).”
as §2, with “Akt1” for “Akt2”, “0.05” for “0.2”
The reaction was stopped by the addition of 5 μl of a solution of HTRF detection reagents (200 nM streptavidine-XL665 [Cisbio] and 1.5 nM anti-phosho-Serine antibody [Millipore, cat. #35-001] and 0.75 nM LANCE Eu-W 1024 labeled anti-mouse IgG antibody [Perkin Elmer]) in an aqueous EDTA-solution (100 mM EDTA, 0.1% (w/v) bovine serum albumin in 50 mM HEPES/NaOH pH 7.5). The resulting mixture was incubated 1 h at 22° C. to allow the binding of the biotinylated phosphorylated peptide to the streptavidine-XL665 and the antibodies. Subsequently the amount of phosphorylated substrate was evaluated by measurement of the resonance energy transfer from the anti-mouse-IgG-Eu-Chelate to the streptavidine-XL665. Therefore, the fluorescence emissions at 620 nm and 665 nm after excitation at 350 nm was measured in a HTRF reader, e.g. a Rubystar (BMG Labtechnologies, Offenburg, Germany) or a Viewlux (Perkin-Elmer). The ratio of the emissions at 665 nm and at […] was taken as the measure for the amount of phosphorylated substrate. The data were normalised (enzyme reaction without inhibitor=0% inhibition, all other assay components but no enzyme=100% inhibition).

SMILES | IC50 [1] [nM] | IC50 [2] [nM]
Cc1nc2nc(-c3ccc(C4(N)CCCC4)cc3)c(-c3ccccc3)cn2n1 [Example 1-1, 1-[4-(2-methyl-6-phenyl-[1,2,4]triazolo[1,5-a]pyrimidin-5-yl)-phenyl]-cyclopentylamine] | 3260 | 2570
Cc1nc2nc(-c3ccc(C4(N)CC4)cc3)c(-c3ccccc3)cn2n1 [Example 1-2, 1-[4-(2-methyl-6-phenyl-[1,2,4]triazolo[1,5-a]pyrimidin-5-yl)-phenyl]-cyclopropylamine] | 2220 | 3010
Cc1nc2nc(-c3ccc(C4(N)CCC4)cc3)c(-c3ccccc3)c(C)n2n1 [Example 1-3, 1-[4-(2,7-dimethyl-6-phenyl-[1,2,4]triazolo[1,5-a]pyrimidin-5-yl)-phenyl]-cyclobutylamine] | 1020 | 526
NC1(c2ccc(-c3nc4nccn4cc3-c3ccccc3)cc2)CCC1 [Example 2-0, 1-[4-(6-Phenyl-imidazo[1,2-a]pyrimidin-7-yl)-phenyl]-cyclobutylamine] | 1640 | 2220
NC1(c2ccc(-c3nc4nccn4c(NC4CC4)c3-c3ccccc3)cc2)CCC1 [Example 2-2, {7-[4-(1-Amino-cyclobutyl)-phenyl]-6-phenyl-imidazo[1,2-a]pyrimidin-5-yl)-cyclopropylamine] | 1580 | 2050
NC1(c2ccc(-c3nc4nccn4c(N4CCOCC4)c3-c3ccccc3)cc2)CCC1 [Example 2-3, 1-[4-(5-Morpholino-4-yl-6-phenyl-imidazo[1,2-a]pyrimidin-7-yl)phenyl]-cyclobutylamine] | 7470 | 13100
COC[C@H](C)Nc1c(-c2ccccc2)c(-c2ccc(C3(N)CCC3)cc2)nc2nccn12 [Example 2-4, {7-[4-(1-Amino-cyclobutyl)-phenyl]-6-phenyl-imidazo[1,2-a]pyrimidin-5-yl}-((S)-2-methoxy-1-methyl-ethyl)-amine] | 1270 | 10600
COC[C@H](C)Nc1c(-c2ccccc2)c(-c2ccc(C3(N)CCC3)cc2)nc2nc(C)cn12 [Example 2-6, {7-[4-(1-Amino-cyclobutyl)-phenyl]-2-methyl-6-phenyl-imidazo[1,2-a]pyrimidin-5-yl}-((S)-2-methoxy-1-methyl-ethyl)-amine] | 2860 | 13000
NC1(c2ccc(-c3nc4nc(-c5ccccn5)nn4c(NC4CC4)c3-c3ccccc3)cc2)CCC1 [Example 3-1, {5-[4-(1-Aminocyclobutyl)-phenyl]-6-phenyl-2-pyridine-2-yl-[1,2,4]triazolo[1,5-a]pyrimidin-7-yl}-cyclopropylamine] | 2320 | 2380
NC1(c2ccc(-c3nc4nc(-c5ccccn5)nn4c(N4CCOCC4)c3-c3ccccc3)cc2)CCC1 [Example 3-2, 1-[4-(7-Morpholine-4-yl-6-phenyl-2-pyridine-2-yl-[1,2,4]triazolo[1,5-a]pyrimidin-5-yl)-phenyl]-cyclobutylamine] | 6640 | ≥ 20000
CCOC(=O)C1(Nc2c(-c3ccccc3)c(-c3ccc(C4(N)CCC4)cc3)nc3nc(C)nn23)CCC1 [Example 3-3, 1-{5-[4-(1-Aminocyclobutyl)-phenyl]-2-methyl-6-phenyl-[1,2,4]triazolo[1,5-a]pyrimidin-7-ylamino}-cyclobutanecarboxylic acid ethyl ester] | 1120 | ≥ 20000
COCCCNc1c(-c2ccccc2)c(-c2ccc(C3(N)CCC3)cc2)nc2nc(C)nn12 [Example 3-4, {5-[4-(1-Amino-cyclobutyl)-phenyl]-2-methyl-6-phenyl-[1,2,4]triazolo[1,5-a]pyrimidin-7-yl}-(3-methoxy-propyl)-amine] | 9350 | 18200
Cc1nc2nc(-c3ccc(C4(N)CCC4)cc3)c(-c3ccccc3)c(NCCc3ccc(F)cc3)n2n1 [Example 3-5, {5-[4-(1-Amino-cyclobutyl)-phenyl]-2-methyl-6-phenyl-[1,2,4]triazolo[1,5-a]pyrimidin-7-yl}-[2-(4-fluoro-phenyl)-ethyl]-amine] | 3560 | 18800
